Measurements as given in US6683162B2, “Targeted alpha particle therapy using actinium-255 conjugates” (Sloan Kettering Institute of Cancer Research, priority 2000, dated 2004).
Like-named read-outs stand apart in the source and are kept apart here.

Tests used:
[1] = Stability of 225Ac complexes of simple chelants: yttrium challenge and C-25 column elution
Procedure: Approximately, 200 μCi of ^225Ac solution was mixed with 10 μl of 50 mM of a ligand solution (such as DOTA) and pH was adjusted to about 6-6.5 with 33 μl of 3 M ammonium acetate. The reaction was kept in a water bath at 37° C. for completion in 2 hours. Reaction yield was monitored using 10 mM NaOH/9% NaCl solvent. Then, 10 μl of 77.5 mM Yttrium chloride solution was added to react with excess chelants for 30 minutes. There are two reasons for adding the 1.5 fold excess Yttrium: 1) if ^225Ac complex is not stable, Yttrium will replace ^225Ac c, and 2) Yttrium will react with chelants and make a final solution at metal excess. The excess metal will be held on a C-25 purification column and the radiometal complex can pass through the column. Therefore, the purified solution should contain a 1:1 metal to ligand ratio for the stability studies.
Each reaction solution was purified through a 1 ml C-25 column using a 5 ml of normal saline as eluting buffer. The first 2.5 ml elution was collected for the stability study. The activity in the eluate and the activity retaining on the column were measured using a dose calibrator 20 hours after purification.

[2] = Long-term in vitro stability of 225Ac-DOTA complex in 25% human serum (ITLC); format: in vitro ADME; details: 37° C., after 1 month
Procedure: 100% human serum (Sigma Chemical Co., St. Louis, Mo.), 100% mouse serum and 25% human serum albumin (Swiss Red Cross, Bern, Switzerland) was used to determine stability of the ^225 Ac complexes and conjugates. Aliquots in serum are mixed with diethylenetriaminepentaacetic acid (DPTA) (Aldrich Chemical Co., Milwaukee, Wis.). ITLC was utilized with either a 10 mM EDTA or 10 mM NaOH/9% NaCl solvent system and ITLC SG strips (Gelman Science Inc., Ann Arbor, Mich.) to assess the complexation and conjugation efficiency of the chelants. The ITLC strips were analyzed by gas ionization detection with an Ambis 4000 (Ambis, San Diego, Calif.).
Long-term in vitro stability of the ^225Ac-DOTA complex was tested by mixing 100 μl of the purified sample with 900 μl of 25% human serum. The ^225Ac-DOTA and solution was incubated at 37° C. and sampled periodically over the course of 30 days. The samples were analyzed by ITLC.

[3] = Liver accumulation of free 225Ac (acetate) injected into a mouse; format: in vivo
Procedure: In contrast to these two [225Ac]DOTA-IgG constructs, free ^225Ac (acetate) injected into a mouse rapidly accumulates in the liver: 40%, 40%, 65% at 24 h, 48 h, and 120 h, respectively.

leukemia cells = details: cumulative doses of up to 3.7 GBq (100 mCi); cited from earlier work
[4] = tested on: human HL60 leukemia cells; details: Bi-213 construct, S.A. 8.4 Ci/g; cited from earlier work
[5] = after yttrium addition, C-25 column

O=C(O)CN(CCN(CC(=O)O)CC(=O)O)CCN(CC(=O)O)CC(=O)O (225Ac complex, metal not drawn) [DTPA]
stability of 225Ac complex (all 225Ac retained on the column) [1]: unstable

O=C([O-])CN1CCN(CC(=O)[O-])CCN(CC(=O)[O-])CCN(CC(=O)[O-])CC1.[225Ac+3] [225Ac-DOTA]
percentage of 225Ac activity eluted from the column ([1]; after […] excess yttrium, 1 ml C-25 column, normal saline, activity measured 20 hours after purification): 98.7%
metal remains complexed [2]: 85%

O=C(O)CCN1CCN(CCC(=O)O)CCN(CCC(=O)O)CCN(CCC(=O)O)CC1 [DOTPA]
stability of 225Ac complex (all 225Ac retained on the column) [1, 5]: unstable

O=C(O)CN1CCCN(CC(=O)O)CCN(CC(=O)O)CCCN(CC(=O)O)CC1 [TETA]
stability of 225Ac complex (all 225Ac retained on the column) [1, 5]: unstable

O=C(O)CCN1CCCN(CCC(=O)O)CCN(CCC(=O)O)CCCN(CCC(=O)O)CC1 [TETPA]
stability of 225Ac complex (all 225Ac retained on the column) [1, 5]: unstable

CC(=O)[O-].CC(=O)[O-].CC(=O)[O-].[225Ac+3] [free 225Ac (acetate)]
accumulation in the liver ([3]; 24 h): 40%
accumulation in the liver ([3]; 48 h): 40%
accumulation in the liver ([3]; 120 h): 65%

[Bi-213]HuM195: 213Bi alpha-particle emitting HuM195 antibody construct, comparator
tumorocidal activity for leukemia cells (leukemia cells): major tumorocidal activity
LD50 [4]: 200,000 pCi/mL
